Measurements taken from ChEMBL document CHEMBL4308841, “Synthesis, in vitro antiproliferative activity, and kinase inhibitory effects of pyrazole-containing diarylureas and diarylamides” (Eur J Med Chem, 2018).

Key:
NCI-H460 = assay: Growth inhibition of human NCI-H460 cells incubated for 48 hrs by sulforhodamine B assay; format: functional, cell-based; conditions: NCI-H460, 48 h
SNB-19 = assay: Growth inhibition of human SNB19 cells incubated for 48 hrs by sulforhodamine B assay; format: functional, cell-based; conditions: SNB-19, 48 h
OVCAR-3 = assay: Growth inhibition of human OVCAR3 cells incubated for 48 hrs by sulforhodamine B assay; format: functional, cell-based; conditions: OVCAR-3, 48 h
OVCAR-4 = assay: Growth inhibition of human OVCAR4 cells incubated for 48 hrs by sulforhodamine B assay; format: functional, cell-based; conditions: OVCAR-4, 48 h
SK-OV-3 = assay: Growth inhibition of human SKOV3 cells incubated for 48 hrs by sulforhodamine B assay; format: functional, cell-based; conditions: SK-OV-3, 48 h
RXF 393 = assay: Growth inhibition of human RXF393 cells incubated for 48 hrs by sulforhodamine B assay; format: functional, cell-based; conditions: RXF 393, 48 h
DU-145 [1] = assay: Growth inhibition of human DU145 cells incubated for 48 hrs by sulforhodamine B assay; format: functional, cell-based; conditions: DU-145, 48 h
KM12 [2] = assay: Growth inhibition of human KM12 cells assessed as cell growth at 0.01 uM incubated for 48 hrs by sulforhodamine B assay relative to control; format: functional; conditions: KM12, 48 h, read-out: Activity
SW-620 = assay: Growth inhibition of human SW620 cells assessed as cell growth at 0.01 uM incubated for 48 hrs by sulforhodamine B assay relative to control; format: functional; conditions: SW-620, 48 h, read-out: Activity
SF-268 = assay: Growth inhibition of human SF268 cells assessed as cell growth at 0.01 uM incubated for 48 hrs by sulforhodamine B assay relative to control; format: functional; conditions: SF-268, 48 h, read-out: Activity
SF-295 = assay: Growth inhibition of human SF295 cells assessed as cell growth at 0.01 uM incubated for 48 hrs by sulforhodamine B assay relative to control; format: functional; conditions: SF-295, 48 h, read-out: Activity
M14 = assay: Growth inhibition of human M14 cells assessed as cell growth at 0.01 uM incubated for 48 hrs by sulforhodamine B assay relative to control; format: functional; conditions: M14, 48 h, read-out: Activity
K562 = assay: Growth inhibition of human K562 cells assessed as cell growth at 0.1 uM incubated for 48 hrs by sulforhodamine B assay relative to control; format: functional; conditions: K562, 48 h, read-out: Activity
KM12 [3] = assay: Growth inhibition of human KM12 cells assessed as cell growth at 0.1 uM incubated for 48 hrs by sulforhodamine B assay relative to control; format: functional; conditions: KM12, 48 h, read-out: Activity
SF-539 = assay: Growth inhibition of human SF539 cells assessed as cell growth at 0.1 uM incubated for 48 hrs by sulforhodamine B assay relative to control; format: functional; conditions: SF-539, 48 h, read-out: Activity
SNB-75 = assay: Growth inhibition of human SNB75 cells assessed as cell growth at 0.1 uM incubated for 48 hrs by sulforhodamine B assay relative to control; format: functional; conditions: SNB-75, 48 h, read-out: Activity
OVCAR-8 = assay: Growth inhibition of human OVCAR8 cells assessed as cell growth at 0.1 uM incubated for 48 hrs by sulforhodamine B assay relative to control; format: functional; conditions: OVCAR-8, 48 h, read-out: Activity
DU-145 [4] = assay: Growth inhibition of human DU145 cells assessed as cell growth at 0.1 uM incubated for 48 hrs by sulforhodamine B assay relative to control; format: functional; conditions: DU-145, 48 h, read-out: Activity
MDA-MB-468 = assay: Growth inhibition of human MDA-MB-468 cells assessed as cell growth at 0.1 uM incubated for 48 hrs by sulforhodamine B assay relative to control; format: functional; conditions: MDA-MB-468, 48 h, read-out: Activity
NCI-H23 = assay: Growth inhibition of human NCI-H23 cells assessed as cell growth at 1 uM incubated for 48 hrs by sulforhodamine B assay relative to control; format: functional; conditions: NCI-H23, 48 h, read-out: Activity
COLO 205 = assay: Growth inhibition of human COLO205 cells assessed as cell growth at 1 uM incubated for 48 hrs by sulforhodamine B assay relative to control; format: functional; conditions: COLO 205, 48 h, read-out: Activity
HT-29 = assay: Growth inhibition of human HT-29 cells assessed as cell growth at 1 uM incubated for 48 hrs by sulforhodamine B assay relative to control; format: functional; conditions: HT-29, 48 h, read-out: Activity
PC-3 = assay: Growth inhibition of human PC3 cells assessed as cell growth at 1 uM incubated for 48 hrs by sulforhodamine B assay relative to control; format: functional; conditions: PC-3, 48 h, read-out: Activity
BT-549 = assay: Growth inhibition of human BT549 cells assessed as cell growth at 1 uM incubated for 48 hrs by sulforhodamine B assay relative to control; format: functional; conditions: BT-549, 48 h, read-out: Activity
RPMI-8226 = assay: Growth inhibition of human RPMI8226 cells assessed as cell growth at 100 uM incubated for 48 hrs by sulforhodamine B assay relative to control; format: functional; conditions: RPMI-8226, 48 h, read-out: Activity
SK-MEL-28 = assay: Growth inhibition of human SK-MEL-28 cells assessed as cell growth at 100 uM incubated for 48 hrs by sulforhodamine B assay relative to control; format: functional; conditions: SK-MEL-28, 48 h, read-out: Activity
CAKI-1 = assay: Growth inhibition of human Caki1 cells assessed as cell growth at 100 uM incubated for 48 hrs by sulforhodamine B assay relative to control; format: functional; conditions: CAKI-1, 48 h, read-out: Activity
NCI-H522 = assay: Growth inhibition of human NCI-H522 cells assessed as cell growth at 10 uM incubated for 48 hrs by sulforhodamine B assay relative to control; format: functional; conditions: NCI-H522, 48 h, read-out: Activity
[5] = read-out: LC50 (the source's name)
[6] = read-out: pLC50 (the source's name) (converted)

O=C(Nc1cccc(-n2cc(-c3ccncc3)c(-c3cc(O)cc(Cl)c3)n2)c1)Nc1ccc(Cl)c(Cl)c1
GI50 (NCI-H460; read-out: GI50): 2.18 µM
CC50 (NCI-H460; [5]): > 100 µM
TGI (NCI-H460; read-out: TGI): 61.4 µM
GI50 (NCI-H460; read-out: pGI50 (converted)): 2.19 µM
CC50 (NCI-H460; [6]): > 100 µM
TGI (NCI-H460; read-out: pTGI (converted)): 6.17 µM
GI50 (SNB-19; read-out: GI50): 3.38 µM
CC50 (SNB-19; [5]): > 100 µM
TGI (SNB-19; read-out: TGI): 19 µM
GI50 (SNB-19; read-out: pGI50 (converted)): 3.16 µM
CC50 (SNB-19; [6]): > 100 µM
TGI (SNB-19; read-out: pTGI (converted)): 19.1 µM
IC50 (OVCAR-3): 1.96 µM
GI50 (OVCAR-3; read-out: GI50): 1.96 µM
CC50 (OVCAR-3; [5]): > 100 µM
TGI (OVCAR-3; read-out: TGI): 50.5 µM
GI50 (OVCAR-3; read-out: pGI50 (converted)): 1.95 µM
CC50 (OVCAR-3; [6]): > 100 µM
TGI (OVCAR-3; read-out: pTGI (converted)): 5.01 µM
GI50 (OVCAR-4; read-out: GI50): 2.9 µM
CC50 (OVCAR-4; [5]): > 100 µM
GI50 (OVCAR-4; read-out: pGI50 (converted)): 2.95 µM
CC50 (OVCAR-4; [6]): > 100 µM
GI50 (SK-OV-3; read-out: GI50): 3.42 µM
CC50 (SK-OV-3; [5]): > 100 µM
TGI (SK-OV-3; read-out: TGI): 94.3 µM
GI50 (SK-OV-3; read-out: pGI50 (converted)): 3.39 µM
CC50 (SK-OV-3; [6]): > 100 µM
TGI (SK-OV-3; read-out: pTGI (converted)): 9.33 µM
LC50 (RXF 393): 8.13 µM
GI50 (RXF 393; read-out: GI50): 0.556 µM
TGI (RXF 393; read-out: TGI): 24.6 µM
GI50 (RXF 393; read-out: pGI50 (converted)): 0.55 µM
TGI (RXF 393; read-out: pTGI (converted)): 2.45 µM
GI50 (DU-145 [1]; read-out: GI50): 2.5 µM
CC50 (DU-145 [1]; [5]): > 100 µM
TGI (DU-145 [1]; read-out: TGI): 10.1 µM
GI50 (DU-145 [1]; read-out: pGI50 (converted)): 2.82 µM
CC50 (DU-145 [1]; [6]): > 100 µM
TGI (DU-145 [1]; read-out: pTGI (converted)): 10.2 µM
growth at 0.01 µM (KM12 [2]): 102%
growth at 0.01 µM (SW-620): 96%
growth at 0.01 µM (SF-268): 94%
growth at 0.01 µM (SF-295): 92%
growth at 0.01 µM (M14): 99%
growth at 0.1 µM (K562): 100%
growth at 0.1 µM (KM12 [3]): 100%
growth at 0.1 µM (SF-539): 95%
growth at 0.1 µM (SNB-75): 52%
growth at 0.1 µM (OVCAR-8): 97%
growth at 0.1 µM (DU-145 [4]): 104%
growth at 0.1 µM (MDA-MB-468): 85%
growth at 1 µM (NCI-H23): 96%
growth at 1 µM (COLO 205): 101%
growth at 1 µM (HT-29): 96%
growth at 1 µM (PC-3): 72%
growth at 1 µM (BT-549): 89%
growth at 100 µM (RPMI-8226): -27%
growth at 100 µM (SK-MEL-28): -52%
growth at 100 µM (CAKI-1): -12%

COc1cc(Cl)cc(-c2nn(-c3cccc(NC(=O)c4cccc(C(F)(F)F)c4)c3)cc2-c2ccncc2)c1
growth at 10 µM (NCI-H522): 32.2%
GI50 (NCI-H460; read-out: GI50): 5.17 µM
CC50 (NCI-H460; [5]): > 100 µM
TGI (NCI-H460; read-out: TGI): > 100 µM
GI50 (NCI-H460; read-out: pGI50 (converted)): 5.13 µM
CC50 (NCI-H460; [6]): > 100 µM
TGI (NCI-H460; read-out: pTGI (converted)): > 100 µM
GI50 (SNB-19; read-out: GI50): > 100 µM
CC50 (SNB-19; [5]): > 100 µM
TGI (SNB-19; read-out: TGI): > 100 µM
GI50 (SNB-19; read-out: pGI50 (converted)): > 100 µM
CC50 (SNB-19; [6]): > 100 µM
TGI (SNB-19; read-out: pTGI (converted)): > 100 µM
IC50 (OVCAR-3): 7.69 µM
GI50 (OVCAR-3; read-out: GI50): 7.59 µM
CC50 (OVCAR-3; [5]): > 100 µM
TGI (OVCAR-3; read-out: TGI): > 100 µM
GI50 (OVCAR-3; read-out: pGI50 (converted)): 7.76 µM
CC50 (OVCAR-3; [6]): > 100 µM
TGI (OVCAR-3; read-out: pTGI (converted)): > 100 µM
GI50 (OVCAR-4; read-out: GI50): > 100 µM
CC50 (OVCAR-4; [5]): > 100 µM
TGI (OVCAR-4; read-out: TGI): > 100 µM
GI50 (OVCAR-4; read-out: pGI50 (converted)): > 100 µM
CC50 (OVCAR-4; [6]): > 100 µM
TGI (OVCAR-4; read-out: pTGI (converted)): > 100 µM
GI50 (SK-OV-3; read-out: GI50): > 100 µM
CC50 (SK-OV-3; [5]): > 100 µM
TGI (SK-OV-3; read-out: TGI): > 100 µM
GI50 (SK-OV-3; read-out: pGI50 (converted)): > 100 µM
CC50 (SK-OV-3; [6]): > 100 µM
TGI (SK-OV-3; read-out: pTGI (converted)): > 100 µM
LC50 (RXF 393): > 100 µM
GI50 (RXF 393; read-out: GI50): 1.57 µM
TGI (RXF 393; read-out: TGI): > 100 µM
GI50 (RXF 393; read-out: pGI50 (converted)): 1.86 µM
TGI (RXF 393; read-out: pTGI (converted)): > 100 µM
GI50 (DU-145 [1]; read-out: GI50): > 100 µM
CC50 (DU-145 [1]; [5]): > 100 µM
TGI (DU-145 [1]; read-out: TGI): > 100 µM
GI50 (DU-145 [1]; read-out: pGI50 (converted)): > 100 µM
CC50 (DU-145 [1]; [6]): > 100 µM
TGI (DU-145 [1]; read-out: pTGI (converted)): > 100 µM
growth at 0.01 µM (KM12 [2]): 110%
growth at 0.01 µM (SW-620): 101%
growth at 0.01 µM (SF-268): 101%
growth at 0.01 µM (SF-295): 98%
growth at 0.01 µM (M14): 101%
growth at 0.1 µM (K562): 112%
growth at 0.1 µM (KM12 [3]): 111%
growth at 0.1 µM (SF-539): 100%
growth at 0.1 µM (SNB-75): 54%
growth at 0.1 µM (OVCAR-8): 94%
growth at 0.1 µM (DU-145 [4]): 107%
growth at 0.1 µM (MDA-MB-468): 85%
growth at 1 µM (NCI-H23): 94%
growth at 1 µM (COLO 205): 94%
growth at 1 µM (HT-29): 70%
growth at 1 µM (PC-3): 73%
growth at 1 µM (BT-549): 94%
growth at 100 µM (RPMI-8226): 22%
growth at 100 µM (SK-MEL-28): 75%
growth at 100 µM (CAKI-1): 21%
